Results reported in patent US11390617B2, “Methods of treating non-Hodgkin lymphoma using 2-(2,6-dioxopiperidin-3-yl)-4-((2-fluoro-4-((3-morpholinoazetidin-1-yl)methyl)benzyl)amino)isoindoline-1,3-dione” (Celgene Corporation, priority 2019, dated 2022).

Experiments:
DOHH2 = test: NHL cell line viability/apoptosis 384-well flow cytometry assay; format: cell-based; settings: DOHH2 (FL), 120 hours
Description: (§1) The following exemplary anti-proliferative assay uses exemplary non-Hodgkin lymphoma (NIL) cell lines (including diffuse large B-cell lymphoma (DLBCL), follicular lymphoma (FL), and mantle cell lymphoma (MCL)) (Table 5). The in vitro growth inhibitory activity of Compound 1 described herein was evaluated using a 384-well flow cytometry assay.
(§2) The cell lines in Table 5 were plated in 384-well flat bottom plates and assessed with increasing concentrations of compound ranging from 0.00015 to 10 μM or dimethyl sulfoxide (DMSO) control. The final concentration of DMSO was 0.1% (v/v). Following the addition of Compound 1 or DMSO and incubation for 120 hours, cell number and cell death were analyzed by flow cytometry (Attune®, Thermo Fisher) using Annexin V and the live-cell impermeant DNA dye, DRAQ7. Phosphatidylserine translocates from the inner layer to the outer layer of the cell membrane early in apoptosis and Annexin V binds to the exposed phosphatidylserine found on the surface of an apoptotic cell. The vital dye DRAQ7 is excluded by intact live cells and only stains cells that have died as a result of apoptosis or necrosis.
(§3) Flow cytometry data analysis was then performed using the Flow Jo_v10 software to determine the number of viable cells (Annexin V and DRAQ7 double negative staining cells) and percentage of apoptotic cells (Annexin V positive cells) for each condition. The live cell count for every concentration was normalized to the DMSO control (considered as 100%) to calculate the percentage of viable cells remaining after treatment and graphed using GraphPad Prism 7.03. The IC50 (50% inhibitory concentration) and Emax (maximum efficacy achieved) values were then calculated by performing nonlinear regression curve fitting using log(inhibitor) vs. normalized response—variable slope analysis on GraphPad Prism 7.03. Area under the curve (AUC) was calculated by performing area under curve analysis on GraphPad Prism 7.03. Similarly, for apoptosis analysis, the percentage of apoptosis combining both “early” (Annexin V positive and DRAQ7 negative) and “late” apoptosis (Annexin V and DRAQ7 positive) cell gates relative to DMSO was graphed using GraphPad Prism 7.03. The AUC, EC50 (concentration of Compound 1 that produces half-maximal apoptosis response) and Ymax (maximal percentage of apoptosis achieved) values from apoptosis curves were calculated by performing area under curve analysis and nonlinear regression curve fitting using log(agonist) vs. normalized response—Variable slope analysis on GraphPad Prism 7.03.
(§4) In Table 6, dose-response proliferation curves for the panel of NHL cell lines and non-linear curve-fit regression were used to determine IC50, AUC, and Emax for % viable cells (Emax for viability varies between 100 at low doses and 0 at high doses, which corresponds to inhibition of all viable cells), and dose-response apoptosis curves were used to determine the EC50, AUC, and Ymax for % apoptosis (Ymax for apoptosis varies from 0 at low doses and 100 at higher doses which corresponds to death of all cells). Tumor cells were exposed to serial dilutions (0.00015 to 10 μM) of Compound 1 or dimethyl sulfoxide (DMSO) control for 5 days. Viability and apoptosis for all cell lines was determined by Annexin V/[…] flow cytometry.

STR428 = test: as above; format: cell-based; settings: STR428 (DLBCL), 120 hours
Description: as §1, §2, §3, §4

[1] = tested on: SUDHL-6 DLBCL xenograft tumors; test: SUDHL-6 (DLBCL) xenograft model; format: in vivo, female SCID mice; settings: Compound 1 10 mg/kg oral, 5 days on 2 days off for 3 weeks, single agent
Description: Female 6- to 8-weeks-old CB17 SCID mice were obtained from Charles River Laboratories. Mice were housed in a barrier facility in micro-isolator cages at 10 animals per cage. Mice were fed with Harlan-Teklad LM-485 Mouse/Rat Sterilizable Diet and autoclaved water ad libitum and maintained on a 12 hours light-dark cycle. Animals were acclimatized to the animal housing facility for a period of 7 days before the beginning of the experiment. All animal studies were performed under protocols approved by Institutional Animal Care and Use Committees.
Suspensions of Compound 1 were pared in aqueous 0.5% Methyl Cellulose, 0.25% Tween 80 and 50 mM Citrate pH 3. […]
Tumor cells were injected subcutaneously in the flank region above the right hind legs of female CB17 SCID mice. […] Tumor volumes were determined before the initiation of treatment and were considered as the starting volumes. Tumors were measured twice a week for the duration of the study. The long and short axes of each tumor were measured using a digital caliper in millimeters. The tumor volumes were calculated using the formula: width^2×length/2. […]
Xenograft data are expressed as mean±SEM. […]
Xenograft study was conducted with female SCID mice bearing SUDHL-6 DLBCL xenograft tumors. […] Tumors were measured twice a week using calipers and tumor volumes were calculated using the formula of W^2×L/2. […]

Structure (SMILES): O=C1CC[C@H](N2C(=O)c3cccc(NCc4ccc(CN5CC(N6CCOCC6)C5)cc4F)c3C2=O)C(=O)N1 [Compound 1, (S)-2-(2,6-dioxopiperidin-3-yl)-4-((2-fluoro-4-((3-morpholinoazetidin-1-yl)methyl)benzyl)amino)isoindoline-1,3-dione]
- AUC (% Viable Cells) (DOHH2): 6.902
- AUC (Apoptosis) (DOHH2): 923.9
- Emax (% Viable Cells) (DOHH2): 0.2066%
- Ymax (Apoptosis) (DOHH2): 95.1%
- EC50 (DOHH2; Homo sapiens, DOHH-2): 17.5 nM
- IC50 (DOHH2; Homo sapiens, DOHH-2, read-out: IC50 (% Viable Cells)): 2.8 nM
- AUC (% Viable Cells) (STR428): 43.48
- AUC (Apoptosis) (STR428): 905.9
- EC50 (STR428): 102 nM
- Emax (% Viable Cells) (STR428): 1.227%
- Ymax (Apoptosis) (STR428): 95.17%
- IC50 (STR428; read-out: IC50 (% Viable Cells)): 94.7 nM
- tumor volume reduction [1]: 68%
